From patent US20240197823A1, “CATIONIC ANTIMICROBIAL PEPTIDES AND USES THEREOF” (priority 2021, published 2024)

How the values were obtained:
Type in all cases: cell-based, Pseudomonas aeruginosa
[1] = tested on: P. aeruginosa strain PA239; test: Bactericidal assay in FBS-containing medium (FMP); conditions: within the 3 h of incubation
Procedure: (§1) To test whether PAX follow this common mechanism, the experiment initially examined the bactericidal activity of the top selection, PAX E35, against the MDR P. aeruginosa strain PA239 (resistant to all 12 test antibiotics, including colistin, Table 6). Bactericidal properties were assessed using a medium called FMP (FBS, 15%; MHB2, 25%; PBS, 60%) that is more physiologically relevant than MHB2 with the inclusion of saline and fetal bovine serum, a known inhibitory condition for many AMPs [Di Y P et al., 2020; Deslouches B et al., 2005]. […] In addition, E35 killed 2 logs of the bacterial cells within the first minute of treatment at 2 μM and 4 μM, compared to the non-effective tobramycin (FIG. 6B). No bacterial cells survived E35 treatment after 5-10 minutes of incubation. […]
(§2) Antibacterial assays. […] The bacterial cells were kept in an incubator for 18 hours at 37° C., which is linked to a robotic system that feeds a plate reader every hour with one of 8×96-well plates. This set-up allows the collection of growth kinetic data at A 570 (absorbance at 570 nm) to examine growth inhibition in real time (BioTek Instruments, USA). […] MBC (minimum bactericidal concentration) was determined as the peptide concentration at which complete bacterial killing was observed [Rozek A et al., 2000]. […] Data were analyzed using GraphPad Prism software.

[2] = tested on: MDR strain PA239; test: Membrane permeabilization, PI incorporation by real-time video imaging; conditions: PA239 at high inoculum (5×10^8 CFU/mL); E35 at 8 μM
Description: (§3) Determination of membrane permeabilization. To examine whether the selected peptides kill their bacterial target mainly by membrane permeabilization, this study used PI incorporation by the MDR strain PA239 (5×10^8 CFU/mL) quantitated by flow cytometry (Novocyte, USA) or visualized by video imaging using the digital microscope EVOS M7000 (Thermo-Fisher, USA) in bright field or red fluorescence channel. In the flow cytometry experiments [Deslouches B et al., 2015], bacterial cells were either untreated or treated with different peptide E35 concentrations in MHB2 for 1 hour at 37° C. The bacteria-peptide mixture was washed with PBS using an Eppendorf centrifuge at top speed for 7 minutes and incubated with PI in the dark for 15 min at room temperature. Tobramycin was used as a negative control with a 3-hour long incubation. For video imaging, the broth medium was reduced to 20% in PBS (treated or untreated) to decrease the rate of cell division and PI incorporation assessed over time. Video images were recorded in real time using the 40× objective either in bright field or red fluorescence channel.

[3] = tested on: P. aeruginosa strain PA239; test: Killing kinetics; conditions: PA239, at 2 μM and 4 μM
Procedure: as §1, §2

[4] = tested on: MDR strain PA239; test: Membrane permeabilization, PI incorporation by flow cytometry; conditions: PA239, 1% triton X-100
Description: as §3

| Molecule | bacterial killing [1] | PI incorporation by real-time video imaging [2] | bacterial cells killed within the first minute of treatment [3] | PI incorporation [4] [%] |
| --- | --- | --- | --- | --- |
| NC[C@H]1O[C@H](O[C@H]2[C@H](O)[C@@H](O[C@H]3O[C@H](CO)[C@@H](O)[C@H](N)[C@H]3O)[C@H](N)C[C@@H]2N)[C@H](N)C[C@@H]1O [tobramycin] | did not display any substantial bacterial killing | did not demonstrate any markedly detectable intracellular PI | non-effective |  |
| triton X-100 |  |  |  | 55 |
